Test results taken from patent US7101915B1, “P-terphenyl compounds” (Shionogi & Co., Ltd., priority 1996, dated 2006).

Assays:
[1] = test system: IgE production of mouse spleen lymphocytes (lipopolysaccharide, IL-4); assay: Suppressive effect on antibody production of mouse spleen lymphocytes: IgE; type: cell-based, BALB/c (nu/nu) mice; conditions: Lymphocyte, 240 h, LPS + IL-4, 10 days
Procedure: (§1) Experiment 6 Suppressive Effect on Antibody Production of Mouse Spleen Lymphocytes 1. Experimental Method 1) Animals
(§2) BALB/c (nu/nu) mice were bought from Japan SLC, Inc. (Shizuoka) and 7 weeks old-male mice were used.
(§3) RPMI medium (Nissui Pharmaceutical Co., Ltd.) containing 10% fetal bovine serum (HyClone Lab.) inactivated at 56° C. for 30 minutes, penicillin (100 units/ml) and streptomycin (100 μg/ml) (GIBCO) was used for experiments.
(§4) Each of the compounds was dissolved in dimethylsulfoxide (Nakaraitesk) at […] and diluted with the medium to adjust a final concentration to 0.1 μg/ml −10 μg/ml.
4) Mouse Spleen Lymphocytes
A spleen of mouse was taken out and put in a cultivating schale which was filled with Hanks' solution. The spleen was crushed and the cells were pushed out from the organ and filtered through a metal mesh (200 mesh). After the collected cell suspension was washed by centrifugation with sterile Hanks' solution (Nissui Pharmaceutical Co., Ltd.), sterile distilled water was added. […]
(§5) In 96-well cultivating plate (Sumitomo Bakelite Company Limited) mouse spleen lymphocytes were inoculated 2×10^5 cells per well. […] After the cultivation for 10 days, the amount of the antibody in a supernatant was quantified by ELISA method.
6) Quantification of the IgE Antibody
A commercial mouse IgE EIA kit (Yamasa Shoyu Co., Ltd.) was used for the quantification of the IgE. […]

[2] = test system: IgG2a production of mouse spleen lymphocytes; assay: Suppressive effect on antibody production of mouse spleen lymphocytes: IgG2a; type: cell-based, BALB/c (nu/nu) mice; conditions: Lymphocyte, 240 h, LPS + IL-4, 10 days
Procedure: as §1, §2, §3, §4
4) Mouse Spleen Lymphocytes […]
as §5
7) Quantification of the IgG1, IgG2a and IgM Antibodies
In 96-well plate 50 μl of 10 μg/ml Goat Anti-Mouse Ig (IgM+G+A, H+ L) (Southern Biotechnology, Birmingham) was added and the plate was coated at 4° C. overnight. […] After washing three times with PBST, 100 μl of culture supernatant which was diluted with PBS or 100 μl of an antibody standard solution (Mouse IgG1 standard, Mouse IgG2a standard, Mouse IgM standard, BETHYL Laboratories) of a pre-determined concentration was added and incubated for 1 hour. […]

[3] = test system: BGG-specific IgE in a serum; assay: Suppressive effect on the antibody production against bovine γ globulin (BGG), sandwich ELISA; type: in vivo, BALB/c mice; conditions: 50 mg/kg p.o. every day, serum after 21 days
Procedure: Experiment 3 Suppressive Effect on the Antibody Production Against Bovine γ Globulin (BGG)
On an immunizing day and 7 days after, 50 μg of BGG was subcutaneously inoculated to backs of BALB/c mice (male, 6-8 weeks old) for inducing an immune reaction. After the compound of the present invention was dissolved or suspended in N, N-dimethylacetoamide, the mixture was diluted with miglyol 812 neutral oil. A proper volume of the compound was orally administered (p.o.) to mice every day from the next day of the immunizing. A two hundredth weight to body weight of miglyol was administered to mice in a control group. After 21 days, blood was drawn from each mouse and a serum was separated. BGG-specific IgE in a serum was measured by the sandwich ELISA method using a BGG-coating plate. The suppressive rate of IgE production was calculated from the dilution rate of the serum which has the same absorption intensity as that of the control group for judging the effect of the compound of the present invention.

[4] = test system: inflammatory cells in BAL solution of OVA-sensitized mice; assay: Suppressive effect on bronchial inflammatory cell infiltration by inhalation of antigen (BAL cell counts); type: in vivo, BALB/c mice; conditions: 40 mg/kg orally for 9 days, BAL 48 hours after challenge, FIG. 4
Procedure: Experiment 7 Suppressive Effect on Bronchial Inflammatory Cell Infiltration by Inhalation of Antigen • 1. Experimental Method • 1) Animals
BALB/c mice bought from Japan SLC, Inc. (Shizuoka) (female, 8-11 weeks old) were used for experiments.
2) Sensitizing and Challenge of Antigen
For immunizing, 0.2 ml of a suspension of 2 μg of ovalbumin (OVA; Grade V, SIGMA) and 2 mg of aluminium hydroxide gel in physiological saline was intraperitoneally injected. After 2 weeks, 0.2 ml of a solution of 2 μg of OVA in physiological saline was intraperitoneally injected for a booster. […]
After calculation of the total cell number by coloring of a part of BAL solution with Türk solution, cells in BAL solution were put on a slide glass with cytospin (SHANDON) for May-Grünwald-Giemsa (MERCK) staining. Under a microscope, 500 cells were classified to a macrophage, an eosinophil, a neutrophil and a lymphocyte and a proportion of each type of the cells was calculated. The number of each type of the cells was calculated by a multiplication of its proportion and the total cell number.

IC50 [1]: 0.00026 ng/mL
IC50 [2]: 3.6 µg/mL
melting point: 93 to 94 °C
SMILES: Cc1cc(-c2ccc(OCC=C(Cl)Cl)c(F)c2)c(C)cc1-c1ccc(O)cc1 [Compound I-963]
Suppressive rate of antigen-specific IgE [3]: >99%
increasing number of eosinophils by the challenge of antigen [4]: significantly suppresses
increasing number of neutrophils by the challenge of antigen [4]: significantly suppresses
